The record followed here is patent publication US9862684B2, “Modulation of K2P channels” (The Regents of the University of California, priority 2013, dated 2018).

For one experiment, the target named is T1, K2P2.1 (TREK-1) W275S (Mus musculus, UniProt P97438, W290S).
T1 construct: expressed in transfected cells; host or cells: Xenopus oocytes
T1 sequence (P97438 1-411 isoform P97438-2 W275S): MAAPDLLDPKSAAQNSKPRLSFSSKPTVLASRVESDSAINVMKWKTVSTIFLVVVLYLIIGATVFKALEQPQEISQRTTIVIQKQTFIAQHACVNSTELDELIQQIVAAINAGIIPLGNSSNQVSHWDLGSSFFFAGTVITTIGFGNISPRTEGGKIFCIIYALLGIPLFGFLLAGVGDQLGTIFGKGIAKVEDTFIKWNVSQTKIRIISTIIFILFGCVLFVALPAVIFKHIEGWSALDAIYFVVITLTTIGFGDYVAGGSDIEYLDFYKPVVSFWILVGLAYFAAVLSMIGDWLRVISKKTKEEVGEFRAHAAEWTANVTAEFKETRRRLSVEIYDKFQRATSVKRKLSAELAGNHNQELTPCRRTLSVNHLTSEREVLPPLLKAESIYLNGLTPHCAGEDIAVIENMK
Kind of experiment: Two-electrode voltage clamp, Xenopus oocytes, C-type gate mutant W275S. It counts as cell-based, Murine. The procedure: I-V curves were measured by two-electrode voltage clamp of Xenopus oocytes in b, 90 mM [K^+]o. or c-e, 2 mM [K^+]o. […] Data (were measured at 20 mV (90 mM [K^+]o) or 0 mV (2 mM [K^+]o), normalized to basal channel activity, and fitted to the Hill equation. Error bars indicate s.e., n≧6, N≧2.
(§1) Murine K2P channels were cloned into pGEMHE/pMO {Bagriantsev, 2011}, IRES-GFP (Invitrogen), or pYES2-MET25 (high copy 2μ, URA3) {Minor, 1999} for expression in oocytes, HEK-293T cells, and yeast, respectively, using standard molecular biology procedures, and verified by DNA sequencing.
Two-electrode voltage clamp recordings were performed from defolliculated stage V-VI Xenopus oocytes 24-48 hours after injection with 0.015-6.0 ng cRNA, using microelectrodes (0.3-3.0 MΩ) filled with 3M KCl. Data was acquired using the GeneClamp 500B (MDS Analytical Technologies) amplifier controlled by the pClamp software (Molecular Devices), and digitized at 1 kHz using Digidata 1332A (MDS Analytical Technologies). Recording solutions (mM): 2K (96 NaCl, 2 KCl, 1.8 CaCl2, 2 MgCl2), 90K (90 KCl, 8 NaCl, 1.8 CaCl2, 2 MgCl2), were buffered 5 mM HEPES pH 7.4. For K2P recordings, currents we elicited by a 1 second long ramp from −150 to +50 mV from a holding potential of −80 mV (2K), or −100 to +50 mV from a holding potential of 0 mV (90K). […]
On the technique in general: In two-electrode clamp one electrode senses voltage and the other passes current.

A further experiment addresses T2, K2P2.1 (TREK-1) (Mus musculus, UniProt P97438).
T2 construct: expressed in transfected cells; host or cells: Xenopus oocytes (cRNA injection, pGEMHE/pMO)
T2 sequence (P97438 1-411 isoform P97438-2): T1 sequence (P97438 1-411 isoform P97438-2 W275S) with S275W
Kind of experiment: Whole cell patch clamp of HEK-293T cells expressing K2P2.1 (TREK-1). It counts as cell-based, Murine. The procedure: as §1
Two-electrode voltage clamp recordings were performed from defolliculated stage V-VI Xenopus oocytes 24-48 hours after injection with 0.015-6.0 ng cRNA, using microelectrodes (0.3-3.0 MΩ) filled with 3M KCl. Data was acquired using the GeneClamp 500B (MDS Analytical Technologies) amplifier controlled by the pClamp software (Molecular Devices), and digitized at 1 kHz using Digidata 1332A (MDS Analytical Technologies). Recording solutions (mM): 2K (96 NaCl, 2 KCl, 1.8 CaCl2, 2 MgCl2), 90K (90 KCl, 8 NaCl, 1.8 CaCl2, 2 MgCl2), were buffered 5 mM HEPES pH 7.4. For K2P recordings, currents we elicited by a 1 second long ramp from −150 to +50 mV from a holding potential of −80 mV (2K), or −100 to +50 mV from a holding potential of 0 mV (90K). For KCNQ2 recordings, currents were elicited by a step protocol from −120 to 60 mV, in 20 mV increments, from a holding potential of −80 mV. Patch-clamp recordings from HEK-293T cells were performed using microelectrodes (2-3 MΩ) filled with 1M KCl. Data was acquired using the Axopatch 200B amplifier controlled by pClamp software, and digitized at 1 kHz using Digidata 1332A. Recording solutions (mM): intracellular (145 KCl, 5 EGTA, 3 MgCl2,) extracellular (150 NaCl, 5 KCl, 3 MgCl2, 1 CaCl2) were buffered with 5 mM HEPES pH 7.2 and 7.4, respectively. Currents were elicited by a 1 second long ramp from −150 to +50 mV from a holding potential of −80 mV. Data were fitted with a modified Hill's equation: I=Imin+(Imax−Imin)/(1+10^((Log EC50−Log [C])*H)), where Imax and Imin are maximal and minimal current values, respectively, EC50 is a half-maximal effective concentration of the compound, and H is the Hill coefficient.

Residue numbers refer to the chain shown, from its start.

With `CC1(C)c2cc(Cl)ccc2N(CCc2nnn[nH]2)c2ccc(Cl)cc21` [ML67-33, 2,7-dichloro-9,9-dimethyl-10-[2-(1H-tetrazol-5-yl)ethyl]acridine], on K2P2.1 (TREK-1) W275S, the EC50 (commonly the concentration at which the effect is half-maximal) was 21.8 ± 1.3 µM and the “Emax (fold)” value is 5.1 ± 0.6 fold. The “Emax (fold)” value at K2P2.1 (TREK-1) (HEK-293T cells, whole cell patch clamp, at 100 μM per FIG. 4 legend) was 11.4±1.1 fold. Moreover, the response at K2P2.1 (TREK-1) (HEK-293T cells, whole cell patch clamp, marked * in Table 1) was half-maximal at 9.7 ± 1.2 µM (EC50). On K2P2.1 (TREK-1) (whole-cell, HEK-293T, 0 mV), the “time of half-maximal activation (t1/2act)” value was 4.1 ± 0.5 s and the “time of return to baseline following washout (t1/2wash)” value is 3.9 ± 0.5 s.
